In assay [1] the target is T1, IRAK4 (Homo sapiens, UniProt Q9NWZ3).
T1 sequence (Q9NWZ3 1-460): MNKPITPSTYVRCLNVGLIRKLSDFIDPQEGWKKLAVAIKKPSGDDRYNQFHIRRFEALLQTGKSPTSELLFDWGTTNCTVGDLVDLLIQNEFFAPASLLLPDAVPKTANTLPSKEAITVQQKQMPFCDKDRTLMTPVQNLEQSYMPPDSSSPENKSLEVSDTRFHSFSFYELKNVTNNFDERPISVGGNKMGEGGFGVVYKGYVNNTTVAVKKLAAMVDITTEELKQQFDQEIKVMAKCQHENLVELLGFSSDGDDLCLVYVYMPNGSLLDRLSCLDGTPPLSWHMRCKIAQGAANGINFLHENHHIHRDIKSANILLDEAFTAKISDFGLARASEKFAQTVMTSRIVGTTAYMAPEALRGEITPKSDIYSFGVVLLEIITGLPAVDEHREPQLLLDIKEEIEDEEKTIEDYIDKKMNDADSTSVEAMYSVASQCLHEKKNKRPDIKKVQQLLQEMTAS
The assay can be described thus: 2-hour 10 μM ATP Biochemical Assay (MesoScale Detection format; IRAK4 phosphorylation of biotin labeled IRAK1 activation loop peptide). To be noted: IRAK4 MSD BIOCHEMICAL (10 μM ATP) IC50 (μM), 1 nM IRAK4, 2 hours. The essentials:
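Electrochemiluminescent MSD readout: after streptavidin capture, phosphothreonine on the biotin-labelled IRAK1 activation-loop peptide detected by rabbit antibody and Sulfo-Tag secondary. Phosphorylation ran 2 h with 10 μM ATP before EDTA quench.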

Assay [2] addresses T1, IRAK4. The assay can be described thus: 2-hour 1 mM ATP IRAK4 Biochemical assay (as above, but with 100 pM IRAK4 and 1 mM ATP). The settings on record: IRAK4 MSD BIOCHEMICAL (1 mM ATP) IC50 (μM), 100 pM IRAK4, 2 hours. Summed up: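 MSD electrochemiluminescence read-out: biotinylated peptide product bound to streptavidin plates, probed with anti-P-Thr rabbit antibody and Sulfo-Tag goat anti-rabbit. Kinase reaction used 1 mM ATP and 100 pM IRAK4 over 2 hours before EDTA quench.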

Molecules are shown by their SMILES.

Among the data in US20220089592A1, “IMIDAZO[1,2-A]PYRIDINYL DERIVATIVES AS IRAK4 INHIBITORS” (priority 2019, published 2022) are IC50 values, retold here.

A word on the IC50: it is the point on the concentration scale where inhibition reaches its midpoint. Low readings indicate higher potency, high ones lower potency.

Turning to `CCOc1cc2nc(C3CN(C(C)=O)C3)cn2cc1NC(=O)c1cccc(C(F)(F)F)n1` [Example 68, N-(2-(1-acetylazetidin-3-yl)-7-ethoxyimidazo[1,2-a]pyridin-6-yl)-6-(trifluoromethyl)picolinamide], the IC50 in assay [1] and in assay [2] was 0.001 µM throughout.

Take `CCOc1cc2nc(C3CCN(C(C)=O)C3)cn2cc1NC(=O)c1cccc(C(F)(F)F)n1` (centres unmarked) [Example 69, N-(2-(1-acetylpyrrolidin-3-yl)-7-ethoxyimidazo[1,2-a]pyridin-6-yl)-6-(trifluoromethyl)picolinamide]: the IC50 in assay [1] and in assay [2] was 0.001 µM each time.

With `CCOc1cc2nc(C3CCN(C(C)=O)CC3)cn2cc1NC(=O)c1cccc(C(F)(F)F)n1` [Example 72, N-(2-(1-acetylpiperidin-4-yl)-7-ethoxyimidazo[1,2-a]pyridin-6-yl)-6-(trifluoromethyl)picolinamide], the half-inhibitory concentration (IC50) in assay [1] and in assay [2] was 0.001 µM throughout.

For `O=C1CC[C@@H](CCOc2cc3nc(C4CC4)cn3cc2NC(=O)c2cccc(C(F)F)n2)N1` [Example 73, (S)—N-(2-cyclopropyl-7-(2-(5-oxopyrrolidin-2-yl)ethoxy)imidazo[1,2-a]pyridin-6-yl)-6-(difluoromethyl)picolinamide], the IC50 in assay [1] is 0.011 µM; in assay [2] it was 0.032 µM.

In the case of `CCOc1nc2nc(CC)cn2cc1NC(=O)c1cccc(C(F)F)n1` [Example 74, 6-(difluoromethyl)-N-(7-ethoxy-2-ethylimidazo[1,2-a]pyrimidin-6-yl)picolinamide], the IC50 in assay [1] was 0.007 µM; in assay [2], 0.018 µM.

As for `CCOc1cc2nc(C3CN(C4COC4)C3)cn2cc1NC(=O)c1cccc(C(F)F)n1` [Example 79, 6-(difluoromethyl)-N-(7-ethoxy-2-(1-(oxetan-3-yl)azetidin-3-yl)imidazo[1,2-a]pyridin-6-yl)picolinamide], the IC50 in assay [1] and in assay [2] was 0.001 µM throughout.

As to `CCOc1cc2nc(C3CN(CCOC)C3)cn2cc1NC(=O)c1cccc(C(F)F)n1` [Example 80, 6-(difluoromethyl)-N-(7-ethoxy-2-(1-(2-methoxyethyl)azetidin-3-yl)imidazo[1,2-a]pyridin-6-yl)picolinamide], the IC50 in assay [1] was determined as 0.002 µM; in assay [2], 0.005 µM.

As for `CCOc1cc2nc(C3CN(C(C)=O)C3)cn2cc1NC(=O)c1cccc(C(F)F)n1` [Example 81, N-(2-(1-acetylazetidin-3-yl)-7-ethoxyimidazo[1,2-a]pyridin-6-yl)-6-(difluoromethyl)picolinamide], the IC50 in assay [1] and in assay [2] was 0.001 µM in each case.

Regarding `CCOc1cc2nc(Cn3cncn3)cn2cc1NC(=O)c1cccc(C(F)F)n1` [Example 82, N-(2-((1H-1,2,4-triazol-1-yl)methyl)-7-ethoxyimidazo[1,2-a]pyridin-6-yl)-6-(difluoromethyl)picolinamide], the IC50 in assay [1] turned out to be 0.001 µM; in assay [2], 0.004 µM.

Turning to `CCOc1cc2nc(CC3COCCO3)cn2cc1NC(=O)c1cccc(C(F)F)n1` (centres unmarked) [Example 83, N-(2-((1,4-dioxan-2-yl)methyl)-7-ethoxyimidazo[1,2-a]pyridin-6-yl)-6-(difluoromethyl)picolinamide], the IC50 in assay [1] is 0.001 µM; in assay [2], 0.005 µM.

Consider `CCOc1cc2nc(Cc3ccn(C)n3)cn2cc1NC(=O)c1cccc(C(F)F)n1` [Example 84, 6-(difluoromethyl)-N-(7-ethoxy-2-((1-methyl-1H-pyrazol-3-yl)methyl)imidazo[1,2-a]pyridin-6-yl)picolinamide], for which the results for the IC50 in assay [1] and in assay [2] were 0.082 µM and 0.015 µM, respectively.

On to `CCOc1cc2nc(CN3CCCC3=O)cn2cc1NC(=O)c1cccc(C(F)F)n1` [Example 85, 6-(difluoromethyl)-N-(7-ethoxy-2-((2-oxopyrrolidin-1-yl)methyl)imidazo[1,2-a]pyridin-6-yl)picolinamide], for which the IC50 in assay [1] was 0.002 µM; in assay [2] it was 0.012 µM.

With `CCOc1cc2nc(COc3ccccn3)cn2cc1NC(=O)c1cccc(C(F)F)n1` [Example 86, 6-(difluoromethyl)-N-(7-ethoxy-2-((pyridin-2-yloxy)methyl)imidazo[1,2-a]pyridin-6-yl)picolinamide], the IC50 in assay [1] was 0.006 µM; in assay [2], 0.008 µM.

As to `CCOc1cc2nc(Cn3ccccc3=O)cn2cc1NC(=O)c1cccc(C(F)F)n1` [Example 87, 6-(difluoromethyl)-N-(7-ethoxy-2-((2-oxopyridin-1(2H)-yl)methyl)imidazo[1,2-a]pyridin-6-yl)picolinamide], the IC50 was 0.004 µM in assay [1] and 0.017 µM in assay [2].

For `CCOc1cc2nc(CCCOC)cn2cc1NC(=O)c1ccn(C(F)F)n1` [Example 88, 1-(difluoromethyl)-N-(7-ethoxy-2-(3-methoxypropyl)imidazo[1,2-a]pyridin-6-yl)-1H-pyrazole-3-carboxamide], the IC50 was 0.003 µM in assay [1] and 0.004 µM in assay [2].

`CCOc1cc2nc(C3(O)CCOCC3)cn2cc1NC(=O)c1cccc(C(F)F)n1` [Example 90, 6-(difluoromethyl)-N-(7-ethoxy-2-(4-hydroxytetrahydro-2H-pyran-4-yl)imidazo[1,2-a]pyridin-6-yl)picolinamide]: the IC50 in assay [1] came to 0.002 µM; in assay [2] it was 0.004 µM.

In the case of `CCOc1cc2nc(C3(OCC)CCOCC3)cn2cc1NC(=O)c1cccc(C(F)F)n1` [Example 91, 6-(difluoromethyl)-N-(7-ethoxy-2-(4-ethoxytetrahydro-2H-pyran-4-yl)imidazo[1,2-a]pyridin-6-yl)picolinamide], the IC50 came to 0.001 µM in assay [1] and 0.003 µM in assay [2].

As to `CCOc1nc2nc(CC3CCOC3)cn2cc1NC(=O)c1cccc(C(F)(F)F)n1` (centres unmarked) [Example 93, N-(7-ethoxy-2-((tetrahydrofuran-3-yl)methyl)imidazo[1,2-a]pyrimidin-6-yl)-6-(trifluoromethyl)picolinamide], the IC50 in assay [1] is 0.001 µM; in assay [2], 0.005 µM.

Turning to `CCOc1cc2nc([C@H]3C[C@H](O)C3)cn2cc1NC(=O)c1cccc(C(F)F)n1` [Example 96], the IC50 in assay [1] and in assay [2] was 0.001 µM in each case.

Take `CCOc1cc2nc([C@H]3C[C@@H](O)C3)cn2cc1NC(=O)c1cccc(C(F)F)n1` [Example 97]: the IC50 in assay [1] and in assay [2] was 0.002 µM each time.

On to `CCOc1cc2nc(C3(CO)CC3)cn2cc1NC(=O)c1cccc(C(F)F)n1` [Example 98, 6-(difluoromethyl)-N-(7-ethoxy-2-(1-(hydroxymethyl)cyclopropyl)imidazo[1,2-a]pyridin-6-yl)picolinamide], for which the IC50 came to 0.008 µM in assay [1] and 0.018 µM in assay [2].

With `CCOc1cc2nc(CC(F)CO)cn2cc1NC(=O)c1cccc(C(F)F)n1` (centres unmarked) [Example 99, 6-(difluoromethyl)-N-(7-ethoxy-2-(2-fluoro-3-hydroxypropyl)imidazo[1,2-a]pyridin-6-yl)picolinamide], the IC50 in assay [1] came out at 0.002 µM; in assay [2], 0.004 µM.

Take `CCOc1cc2nc(C(C)(C)O)cn2cc1NC(=O)c1cccc(C(F)F)n1` [Example 100, 6-(difluoromethyl)-N-(7-ethoxy-2-(2-hydroxypropan-2-yl)imidazo[1,2-a]pyridin-6-yl)picolinamide]: the IC50 in assay [1] was 0.008 µM; in assay [2] it was 0.011 µM.

For the molecule `COCCOc1cc2nc(C3CC3)cn2cc1NC(=O)c1cccc(C(F)F)n1` [Example 101, N-(2-cyclopropyl-7-(2-methoxyethoxy)imidazo[1,2-a]pyridin-6-yl)-6-(difluoromethyl)picolinamide], the IC50 in assay [1] is 0.006 µM; in assay [2] it was 0.029 µM.

For the molecule `CCOc1cc2nc(C(=O)N(C)C)cn2cc1NC(=O)c1cccc(C(F)F)n1` [Example 108, 6-(6-(difluoromethyl)picolinamido)-7-ethoxy-N,N-dimethylimidazo[1,2-a]pyridine-2-carboxamide], the values for the IC50 in assay [1] and in assay [2] were 0.011 µM and 0.025 µM, respectively.

On to `CCOc1cc2nc(C(C)(F)F)cn2cc1NC(=O)c1cccc(C(F)F)n1` [Example 109, N-(2-(1,1-difluoroethyl)-7-ethoxyimidazo[1,2-a]pyridin-6-yl)-6-(difluoromethyl)picolinamide], for which the IC50 stood at 0.002 µM in assay [1] and 0.003 µM in assay [2].

For `CCOc1cc2nc(CCC(F)F)cn2cc1NC(=O)c1cccc(C(F)F)n1` [Example 110, 6-(difluoromethyl)-N-(2-(3,3-difluoropropyl)-7-ethoxyimidazo[1,2-a]pyridin-6-yl)picolinamide], the IC50 in assay [1] and in assay [2] was 0.001 µM in each case.

For the molecule `CCOc1cc2nc(C3(F)CC3)cn2cc1NC(=O)c1cccc(C(F)F)n1` [Example 111, 6-(difluoromethyl)-N-(7-ethoxy-2-(1-fluorocyclopropyl)imidazo[1,2-a]pyridin-6-yl)picolinamide], the values for the IC50 in assay [1] and in assay [2] were 0.002 µM and 0.003 µM, respectively.
